Measurements published in patent US20110144064A1, “Inhibitors of Kynurenine Aminotransferase and Uses Therefor” (priority 2005, published 2011).
pIC50: −log10 of the molar value. Where “and” joins values, the source holds several entries; their conditions need not be identical. Equal values may be shown once. Read-outs that look alike come from different tables or passages of the source.

Biological target: T1, rat liver partially purified KAT II (Rattus norvegicus, UniProt Q64602)
T1 construct: rat liver partially purified KAT II; from tissue; host or cells: rat liver
T1 sequence (Q64602 30-425): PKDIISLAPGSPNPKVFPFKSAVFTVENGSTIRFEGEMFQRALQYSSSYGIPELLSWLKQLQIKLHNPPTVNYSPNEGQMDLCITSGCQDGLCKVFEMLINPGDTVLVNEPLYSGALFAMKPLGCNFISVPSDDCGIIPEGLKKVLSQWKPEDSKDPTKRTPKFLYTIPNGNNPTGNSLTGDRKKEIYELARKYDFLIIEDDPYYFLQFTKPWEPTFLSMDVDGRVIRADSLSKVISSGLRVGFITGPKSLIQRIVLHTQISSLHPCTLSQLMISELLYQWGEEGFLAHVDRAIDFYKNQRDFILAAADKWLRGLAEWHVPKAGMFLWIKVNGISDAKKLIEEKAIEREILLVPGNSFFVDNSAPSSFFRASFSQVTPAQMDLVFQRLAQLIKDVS
Experiment: Inhibition of kynurenine aminotransferase II activity ([3H]-kynurenine to [3H]-kynurenic acid)
Assay type: biochemical
Protocol: Compounds were tested as inhibitors of kynurenine aminotransferase II and the IC50 values determined. For the determination of the KAT II activity, 80 μl of rat liver partially purified KAT II was incubated (2 hrs at 37° C. with 100 μl of 150 mM Tris-acetate (pH 7.4), 2 μM kynurenine, (2.5 nCi) [^3H]-kynurenine 1 mM pyruvate and 70 μM pyridoxal-5′-phosphate. Add 20 μl of the inhibitor solution (10×). The reaction was terminated by the addition of 14 μl of 50% trichloroacetic acid and 1 ml of 0.1 N hydrochloric acid. The denaturated protein was removed by centrifugation and 1 ml of the supernatant was applied to a Dowex 50 W H^+ cation exchange column which was then washed with 1 ml of 0.1 N hydrochloric acid followed by 1 ml of ultrapure water. [^3H]-Kynurenic acid formed was subsequently eluted with 2×1 ml of ultrapure water and radioactivity was quantified by liquid scintillation spectrometry.
All compounds are in the racemic form, when applicable, unless indicated otherwise. Other untested compounds are commercially available or easily synthesized using standard synthetic methods. Data are presented as IC50 values in μM for all tested compounds. Blanks are untested compounds.

[1] = rat liver partially purified KAT II, 2 hrs at 37° C., pH 7.4, 2 μM kynurenine, 1 mM pyruvate, read-out: IC50 kynurenine aminotransferase II
[2] = rat liver partially purified KAT II, 2 hrs at 37° C., pH 7.4, 2 μM kynurenine, 1 mM pyruvate
[3] = IC50 kynurenine aminotransferase II, rat liver partially purified KAT II, 2 hrs at 37° C., pH 7.4, 2 μM kynurenine, 1 mM pyruvate

pIC50 [1] | SMILES | further results
4.15 | O=C(O)CCCCCCCCCCCCCC(=O)O [n=12, R^1 = H, 1,15-pentadecanedioic acid] | –
– | O=C(O)CC(=O)O [n=0, R^1 = H] | IC50 kynurenine aminotransferase II [2]: inactive
– | O=C(O)CCCC(=O)O [n=2, R^1 = H] | IC50 kynurenine aminotransferase II [2]: inactive
3.00 | NC(CCCP(=O)(O)O)C(=O)O (racemic) [n=3, X = PO3H2 (DL), DL-2-amino-5-phosphonopentanoic acid] | –
3.14 | O=C(O)CCCCCCCCC(=O)O [n=7, R^1 = H, 1,10-decanedioic acid] | –
3.45 | NC(CCCCCCC(=O)O)C(=O)O (racemic) [n=6, R^1 = NH^2, DL-2-amino-1,9-nonanedioic acid] | –
– | NC(CCCCCP(=O)(O)O)C(=O)O (stereo not drawn) [n=5, X = PO3H2 (DL), 2-amino-7-phosphonoheptanoic acid] | pIC50 [3]: 2.84
– | NC(CCP(=O)(O)O)C(=O)O (racemic) [n=2, X = PO3H2 (DL), DL-2-amino-4-phosphonobutyric acid] | pIC50 [3]: 3.30
5.15 | NC(CCCCCCCCCCC(=O)O)C(=O)O (racemic) [n=10, R^1 = NH^2, DL-2-amino-1,13-tridecanedioic acid] | –
4.74 | NC(CCCC(=O)O)C(=O)O (racemic) [n=3, R^1 = NH^2, DL-2-amino-1,6-hexanedioic acid] | –
2.89 | O=C(O)CCCCC(=O)O [n=3, R^1 = H, 1,6-hexanedioic acid] | –
4.07 | NC(CCCCCCCCCCCCCCC(=O)O)C(=O)O (racemic) [n=14, R^1 = NH^2, DL-2-amino-1,17-heptadecanedioic acid] | –
4.22 | O=C(O)CCCCCCCCCCCCCCC(=O)O [n=13, R^1 = H, 1,16-hexadecanedioic acid] | –
5.22 and 5.19 | NC(CCCCCCCCCCCCCC(=O)O)C(=O)O (racemic) [n=13, R^1 = NH^2, DL-2-amino-1,16-hexadecanedioic acid] | –
4.20 | NC(CCS(=O)(=O)O)C(=O)O (centres unmarked) [n=2, X = SO3H (L), 2-amino-4-sulfobutyric acid] | –
3.63 | O=C(O)CCCCCCCCCC(=O)O [n=8, R^1 = H, 1,11-undecanedioic acid] | –
5.10 | NC(CCCCCCCCCC(=O)O)C(=O)O (racemic) [n=9, R^1 = NH^2, DL-2-amino-1,12-dodecandioic acid] | –

pIC50 [1] | SMILES | further results
2.61 | NC(CC(=O)O)C(=O)O (racemic) [n=1, R^1 = NH^2, DL-2-amino-1,4-butanedioic acid] | –
5.15 | NC(CCCCCCCCC(=O)O)C(=O)O (racemic) [n=8, R^1 = NH^2, DL-2-amino-1,11-undecanedioic acid] | –
3.13 | NC(CS(=O)(=O)O)C(=O)O (centres unmarked) [n=1, X = SO3H (L), 2-amino-3-sulfopropionic acid] | –
– | O=C(O)CCCCCCC(=O)O [n=5, R^1 = H] | IC50 kynurenine aminotransferase II [2]: inactive
3.99 | O=C(O)CCCCCCCCCCCCC(=O)O [n=11, R^1 = H, 1,14-tetradecanedioic acid] | –
– | O=C(O)CCC(=O)O [n=1, R^1 = H] | IC50 kynurenine aminotransferase II [2]: inactive
2.94 | N[C@@H](CS(=O)O)C(=O)O [n=1, X = S02H (L), cysteinesulfinic acid] | –
2.20 | O=C(O)CCCCCC(=O)O [n=4, R^1 = H, 1,7-heptanedioic acid] | –
4.53 | CNC(CCCCCCCCCCCCCC(=O)O)C(=O)O (racemic) [DL-2-methylamino-1,16-hexadecanedioic acid] | –
3.59 | O=C(O)CCCCCCCCCCC(=O)O [n=9, R^1 = H, 1,12-dodecanedioic acid] | –
4.27 | CC(N)(CCCCCCCCCCCCCC(=O)O)C(=O)O (racemic) [DL-2-amino-2-methyl-1,16-hexadecanedioic acid] | –
2.34 | O=C(O)CCCCCCCC(=O)O [n=6, R^1 = H, 1,9-nonanedioic acid] | –
– | NC(CCC(=O)O)C(=O)O (racemic) [n=2, R^1 = NH^2, DL-2-amino-1,5-pentanedioic acid] | pIC50 [3]: 2.65
4.85 | NC(CCCCC(=O)O)C(=O)O (racemic) [n=4, R^1 = NH^2, DL-2-amino-1,7-heptanedioic acid] | –
3.65 | N[C@@H](CCS(=O)O)C(=O)O [n=2, X = S02H (L), homocysteinesulfinic acid] | –
– | NC(CCCCCC(=O)O)C(=O)O (racemic) [n=5, R^1 = NH^2, DL-2-amino-1,8-octanedioic acid] | pIC50 (IC50 kynurenine aminotransferase II): 3.57
3.77 | O=C(O)CCCCCCCCCCCC(=O)O [n=10, R^1 = H, 1,13-tridecanedioic acid] | –

SMILES | pIC50 [1] | further results
O=C(O)CCCCCCCCCCCCCCCO [n = 13, R1, R2 = H, X = CH2OH, 16-hydroxyhexadecanoic acid] | 3.83 | –
